Here are results for 7 compounds from patent US9382245B2, “Compounds and methods for treating HIV infections” (priority 2013, dated 2016).

Like-named read-outs stand apart in the source and are kept apart here. Marks after values point to notes of the source that are not given here. Bounds are passed on as bounds.

Data set [1] is described as follows: Aqueous solubility, shake-flask procedure. Format: physicochemical. Particulars: for solubility at 48 h: Britton-Robinson buffer, 25 °C, pH 6.5, aqueous buffer, thermodynamic from solid. As for the experimental part:
Poor solubility, which has been a problem for many NNRTIs, often leads too low bioavailability, difficulties in formulation, and high dosages.^6,32,33 The issue reflects the hydrophobic nature of the NNRTI binding site. In the design of the catechol diethers, attention was paid to having both good potency and aqueous solubility. In our laboratory, solubilities are measured using a shake-flask procedure.^6,34 The compounds are dissolved in Britton-Robinson buffer and stirred in vials for 48 hours at 25° C. The pH of the buffer solutions is 6.5 as measured by a Corning General Purpose pH Combination probe (4136L21).

Data set [2] relates to IIIB strain of HIV-1 (wild-type). In words: microbe, parasite or virus in culture. Format: cell-based.
For data set [3] the following is noted: Table 2, cited from earlier work.
Setting [4] is: Table 2, pH 6.5, Britton-Robinson buffer, 48 hours at 25° C., read-out: S, aqueous solubility.

One may read the solubility as how much of the substance goes into solution per volume. Take `N#C/C=C/c1cc(Cl)cc(Oc2ccccc2OCCn2ccc(=O)[nH]c2=O)c1` [1c, (E)-3-(3-chloro-5-(2-(2-(2,4-dioxo-3,4-dihydropyrimidin-1(2H)-yl)ethoxy)phenoxy)phenyl)acrylonitrile]: the solubility at 48 h in data set [1] (setting [4]) amounted to 510 µg/mL; in data set [1] (shake-flask, pH 6.5, read-out: aqueous solubility), 510 µg/mL. The CC50 with human MT-2 T-cells (human) is 18 µM.

Turning to `N#Cc1cc2cccc(Oc3ccc(F)cc3OCCn3ccc(=O)[nH]c3=O)n2c1` [11a, 5-(2-(2-(2,4-dioxo-3,4-dihydropyrimidin-1(2H)-yl)ethoxy)-4-fluorophenoxy)indolizine-2-carbonitrile], the “fold less active, WT” value in data set [2] (11a compared with its isomer 10f) was found to be 6 fold. The same compound displayed a CC50 in the data set “in vitro” (human) of over 100 µM.

With `O=c1ccn(CCOc2ccccc2Oc2cccc3ccccc23)c(=O)[nH]1` [14a, 1-(2-(2-(naphthalen-1-yloxy)phenoxy)ethyl)pyrimidine-2,4(1H,3H)-dione], the “fold less active, WT” value in data set [2] (14a compared with 14e) is recorded as 100 fold. The compound further yielded a CC50 in the data set with human MT-2 T-cells (human) of 80 µM.

Turning to `N#Cc1ccc2c(Oc3ccccc3OCCn3ccc(=O)[nH]c3=O)cccc2c1` [14e, 5-(2-(2-(2,4-dioxo-3,4-dihydropyrimidin-1(2H)-yl)ethoxy)phenoxy)-2-naphthonitrile], the fold less soluble in data set [1] (14e compared with indolizine 10b) is 10 fold. Also, in data set [1] (14e over etravirine and rilpivirine), the “fold improvement in solubility” value was “ca. 40 fold”. Moreover, the solubility at 48 h in data set [1] (setting [4]) worked out at 4.3 µg/mL. For the same compound, the CC50 in the data set “in vitro” (human) and with human MT-2 T-cells (human) was over 100 µM throughout.

Broadly, the EC50 is the concentration that produces a half-maximal response. With `O=C1Nc2ccc(Cl)cc2[C@@](C#CC2CC2)(C(F)(F)F)O1` [efavirenz, reference compound], the EC50 in data set [2] (Human immunodeficiency virus 1, IIIB, MT2, read-out: WT EC50) is 0.002 µM.

In the case of `Cc1cc(C#N)cc(C)c1Oc1nc(Nc2ccc(C#N)cc2)nc(N)c1Br` [etravirine], the “S, aqueous solubility” value in data set [3] (Ref. 36) is listed as <<1^b μg/mL.

Regarding `Cc1ccnc2c1NC(=O)c1cccnc1N2C1CC1` [nevirapine, reference compound], in data set [3] (Ref. 35), the “S, aqueous solubility” value was 167^a μg/mL. Also, the CC50 was over 100 µM in “in vitro”; over 100 µM in the data set on human MT-2 T-cells (Table 3, 50% inhibition of MT-2 cell growth); over 100 µM in the data set on human MT-2 T-cells (Table 4, 50% inhibition of MT-2 cell growth).
